Experimental data as given in US20240376094A2, “SELECTIVE BCL-XL PROTAC COMPOUNDS AND METHODS OF USE” (Les Laboratoires Servier, priority 2021, published 2024).

What was measured:
Format in all cases: cell-based
[1] = tested on: EBC-1 lung cancer cell line; experiment: EBC-1 cell proliferation, CellTiter-Glo assay; details: Homo sapiens, 120 h; Ebc-1 cell viability, CTG assay, 5 days of treatment; read-out: CTG 5 day Ebc1 GI50
Experimental: (§1) The ability of the BCL-xL degrader low molecular weight compounds to inhibit cell proliferation and survival was assessed using the Promega CellTiter-Glo® proliferation assay on the EBC-1 lung cancer cell line (RCB1965, obtained from RIKEN.) The cells were cultured in media that is optimal for their growth at 5% CO2, 37° C. in a tissue culture incubator. Prior to seeding for the proliferation assay, the cells were split at least 2 days before the assay to ensure optimal growth density. On the day of seeding, cells were lifted off tissue culture flasks using 0.25% trypsin. Cell viability and cell density were determined using a cell counter (Vi-Cell XR Cell Viability Analyzer, Beckman Coulter). Cells with higher than 85% viability were seeded in white clear bottom 384-well plates (Greiner cat #781098) at a density of 1000 cells per well in 50 μL of standard growth media. Plates were incubated at 37° C. overnight in a tissue culture incubator.
The BCL-xL degrader low molecular weight compounds were prepared to desired concentrations. A series of 10 dilutions were made for each prepared compound. The prepared compounds were then added to the cells resulting in final concentrations of 0.508 nM-10 μM. An acoustic transfer device (Echo555, Beckman Coulter) was used to add the compounds to the cells. Each treatment was tested in triplicate assay plates. Plates were incubated at 37° C. overnight or for 5 days in a tissue culture incubator. The ability of the compounds to inhibit cell proliferation and survival was assessed using the Promega CellTiter-Glo® proliferation assay. Plates were incubated at room temperature for 20 minutes to stabilize luminescent signals prior to reading using a multimode plate reader (PHERAstar FSX Microplate Reader, BMG Labtech).
To evaluate the effect of the compound treatments, luminescent counts of untreated cells were taken the day after seeding (Day 0 readings), and after 5 days of treatment (Day 5 readings). The Day 5 readings of the untreated cells were compared to the Day 0 readings. Assays with at least one cell doubling during the incubation period were considered valid. To evaluate the effect of the drug treatments, luminescent counts from wells containing untreated cells (100% viability) were used to normalize treated samples. The concentrations of treatment required to inhibit 50% of cell growth or survival ([…]) were calculated using a four parameter logistic regression equation.

MOLT-4 cells = experiment: MOLT-4 cell viability, CTG assay; details: Homo sapiens, MOLT-4, 48 h
Outline: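 Cells grown in RPMI 1640 with 10% FBS at 37° C, 5% CO2, then exposed to compounds for 48 h (11-point 5-fold dilution, triplicates). ATP measured by CellTiter-Glo luminescence; IC50 from four-parameter fit versus control, mean of ≥2 independent experiments.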

HiBiT-tagged BCL-xL = target: T1, HiBiT-tagged BCL-xL (Homo sapiens, UniProt Q07817); experiment: NCI-H1650 BCL-xL protein levels, Nano-Glo HiBiT Lytic Detection; details: NCI-H1650 expressing HiBiT-tagged BCL-xL, overnight incubation, read-out: Bcl-xl HIBIT NCIH1650 DC50
T1 construct: expressed in transfected cells; host or cells: NCI-H1650 (ATCC No. CRL-5883), engineered HiBiT cell line
Experimental: as §1, with “degrade BCL-xL protein” for “inhibit cell proliferation and survival”, “Nano-Glo® HiBiT Lytic Detection System. The NCI-H1650 (ATCC No. CRL-5883) was engineered to express HiBiT-tagged BCL-xL. The NCI-H1650 HiBiT” for “CellTiter-Glo® proliferation assay on the EBC-1 lung cancer”, “was” for “(RCB1965, obtained from RIKEN.) The cells were”, “protein level” for “proliferation”, “5000” for “1000”, “30” for “50”
The BCL-xL degrader low molecular weight compounds were prepared to desired concentrations. A series of 10 dilutions were made for each prepared compound. The prepared compounds were then added to the cells resulting in final concentrations of 0.508 nM-10 μM. An acoustic transfer device (Echo555, Beckman Coulter) was used to add the compounds to the cells. Each treatment was tested in triplicate assay plates. Plates were incubated at 37° C. overnight in a tissue culture incubator.
BCL-xL degradation was assessed through the addition of 30 μL of Nano-Glo® HiBiT Lytic Reagent (Promega, cat #N3040), a reagent which lyses cells and contains a furimazine substrate and the large subunit (LgBiT) used in NanoLuc® Binary Technology. The LgBiT subunit having high affinity to a HiBiT-tagged protein will bind HiBiT, if present, resulting in complex formation of a luminescent NanoBiT® enzyme. This reaction will emit a luminescent signal proportional to the amount of HiBiT-tagged BCL-xL present in the cell lysate. Plates were incubated at room temperature for 20 minutes to stabilize luminescent signals prior to reading using a luminescence reader (PHERAstar FSX Microplate Reader, BMG Labtech).
To evaluate the effect of the drug treatments, luminescent counts from wells containing untreated cells (100% HiBiT-tagged BCL-xL) were used to normalize treated samples. The concentrations of treatment required to inhibit 50% were calculated using a four parameter logistic regression equation.

T1 sequence (Q07817 whole entry): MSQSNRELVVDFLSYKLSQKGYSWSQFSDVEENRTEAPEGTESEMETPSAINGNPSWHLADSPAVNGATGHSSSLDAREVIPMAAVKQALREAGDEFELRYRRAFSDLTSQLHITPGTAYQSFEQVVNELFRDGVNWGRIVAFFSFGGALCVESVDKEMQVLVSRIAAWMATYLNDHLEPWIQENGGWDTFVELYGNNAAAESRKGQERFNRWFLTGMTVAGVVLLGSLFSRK

SMILES | GI50 [1] [nM] | IC50 (MOLT-4 cells) [nM] | DC50 (HiBiT-tagged BCL-xL) [nM]
Cc1ncsc1-c1ccc([C@H](C)NC(=O)[C@@H]2C[C@@H](O)CN2C(=O)[C@@H](NC(=O)C2CCN(C(=O)CCCCCCCCCCCN(C)CCOC34CC5(C)CC(C)(CC(Cn6ncc(-c7ccc(N8CCCc9c8nnc(Nc8nc%10ccccc%10s8)c9C)nc7C(=O)O)c6C)(C5)C3)C4)CC2)C(C)(C)C)cc1 [Example 86, 6-[3-(1,3-benzothiazol-2-ylamino)-4-methyl-6,7-dihydro-5H-pyrido[2,3-c]pyridazin-8-yl]-3-[1-[[3-[2-[[12-[4-[[(1S)-1-[(2S,4R)-4-hydroxy-2-[[(1S)-1-[4-(4-methylthiazol-5-yl)phenyl]ethyl]carbamoyl]pyrrolidine-1-carbonyl]-2,2-dimethyl-propyl]carbamoyl]-1-piperidyl]-12-oxo-dodecyl]-methyl-amino]ethoxy]-5,7-dimethyl-1-adamantyl]methyl]-5-methyl-pyrazol-4-yl]pyridine-2-carboxylic acid] | 18 | 13.7 | > 1670
Cc1cc(N(CCCCN(C)C(=O)CCCCCCCCCCC(=O)N[C@H](C(=O)N2C[C@H](O)C[C@H]2C(=O)N[C@@H](C)c2ccc(-c3scnc3C)cc2)C(C)(C)C)c2ccc(-c3cnn(CC45CC6(C)CC(C)(C4)CC(OCCN(C)C)(C6)C5)c3C)c(C(=O)N(C)C)n2)nnc1Nc1nc2ccccc2s1 [Example 128, N′-[4-[[6-(1,3-benzothiazol-2-ylamino)-5-methyl-pyridazin-3-yl]-[5-[1-[[3-[2-(dimethylamino)ethoxy]-5,7-dimethyl-1-adamantyl]methyl]-5-methyl-pyrazol-4-yl]-6-(dimethylcarbamoyl)-2-pyridyl]amino]butyl]-N-[(1S)-1-[(2S,4R)-4-hydroxy-2-[[(1S)-1-[4-(4-methylthiazol-5-yl)phenyl]ethyl]carbamoyl]pyrrolidine-1-carbonyl]-2,2-dimethyl-propyl]-N′-methyl-dodecanediamide] | 869 | 67 | 18
Cc1ncsc1-c1ccc([C@H](C)NC(=O)[C@@H]2C[C@@H](O)CN2C(=O)[C@@H](NC(=O)CCCCCCCCCCCCCN(C)CCOC23CC4(C)CC(C)(CC(Cn5ncc(-c6ccc(N7CCCc8c7nnc(Nc7nc9ccccc9s7)c8C)nc6CO)c5C)(C4)C2)C3)C(C)(C)C)cc1 [Example 155, (2S,4R)-1-[(2S)-2-[14-[2-[[3-[[4-[6-[3-(1,3-benzothiazol-2-ylamino)-4-methyl-6,7-dihydro-5H-pyrido[2,3-c]pyridazin-8-yl]-2-(hydroxymethyl)-3-pyridyl]-5-methyl-pyrazol-1-yl]methyl]-5,7-dimethyl-1-adamantyl]oxy]ethyl-methyl-amino]tetradecanoylamino]-3,3-dimethyl-butanoyl]-4-hydroxy-N-[(1S)-1-[4-(4-methylthiazol-5-yl)phenyl]ethyl]pyrrolidine-2-carboxamide] | 431 | 22.1 | > 1670
Cc1ncsc1-c1ccc([C@H](C)NC(=O)[C@@H]2C[C@@H](O)CN2C(=O)[C@@H](NC(=O)CCC(=O)N2CCC[C@@H](NC(=O)c3nc(N4CCCc5c4nnc(Nc4nc6ccccc6s4)c5C)ccc3-c3cnn(CC45CC6(C)CC(C)(C4)CC(OCCN4CCCC4)(C6)C5)c3C)C2)C(C)(C)C)cc1 [Example 171] | 121 | – | > 1670

Other lines, results leading:

GI50 [1] [nM] | IC50 (MOLT-4 cells) [nM] | DC50 (HiBiT-tagged BCL-xL) [nM] | SMILES
73 | – | > 1670 | Cc1ncsc1-c1ccc([C@H](C)NC(=O)[C@@H]2C[C@@H](O)CN2C(=O)[C@@H](NC(=O)[C@H]2CCCN(C(=O)c3nc(N4CCCc5c4nnc(Nc4nc6ccccc6s4)c5C)ccc3-c3cnn(CC45CC6(C)CC(C)(C4)CC(OCCN4CCCC4)(C6)C5)c3C)C2)C(C)(C)C)cc1 [Example 168, (S)-1-(6-(3-(benzo[d]thiazol-2-ylamino)-4-methyl-6,7-dihydropyrido[2,3-c]pyridazin-8(5H)-yl)-3-(1-(((1r,3R,5S,7R)-3,5-dimethyl-7-(2-(pyrrolidin-1-yl)ethoxy)adamantan-1-yl)methyl)-5-methyl-1H-pyrazol-4-yl)picolinoyl)-N—((S)-1-((2S,4R)-4-hydroxy-2-(((S)-1-(4-(4-methylthiazol-5-yl)phenyl)ethyl)carbamoyl)pyrrolidin-1-yl)-3,3-dimethyl-1-oxobutan-2-yl)piperidine-3-carboxamide]
6 | – | > 1670 | Cc1ncsc1-c1ccc([C@H](C)NC(=O)[C@@H]2C[C@@H](O)CN2C(=O)[C@@H](NC(=O)[C@@H]2CCCN(C(=O)c3nc(N4CCCc5c4nnc(Nc4nc6ccccc6s4)c5C)ccc3-c3cnn(CC45CC6(C)CC(C)(C4)CC(OCCN4CCCC4)(C6)C5)c3C)C2)C(C)(C)C)cc1 [Example 169, (R)-1-(6-(3-(benzo[d]thiazol-2-ylamino)-4-methyl-6,7-dihydropyrido[2,3-c]pyridazin-8(5H)-yl)-3-(1-(((1r,3R,5S,7S)-3,5-dimethyl-7-(2-(pyrrolidin-1-yl)ethoxy)adamantan-1-yl)methyl)-5-methyl-1H-pyrazol-4-yl)picolinoyl)-N—((S)-1-((2S,4R)-4-hydroxy-2-(((S)-1-(4-(4-methylthiazol-5-yl)phenyl)ethyl)carbamoyl)pyrrolidin-1-yl)-3,3-dimethyl-1-oxobutan-2-yl)piperidine-3-carboxamide]
13 | – | 1 | Cc1ncsc1-c1ccc([C@H](C)NC(=O)[C@@H]2C[C@@H](O)CN2C(=O)[C@@H](NC(=O)CC2CC3(C2)CN(C(=O)c2nc(N4CCCc5c4nnc(Nc4nc6ccccc6s4)c5C)ccc2-c2cnn(CC45CC6(C)CC(C)(C4)CC(OCCN4CCCC4)(C6)C5)c2C)C3)C(C)(C)C)cc1 [Example 170, (2S,4R)-1-((S)-2-(2-(2-(6-(3-(benzo[d]thiazol-2-ylamino)-4-methyl-6,7-dihydropyrido[2,3-c]pyridazin-8(5H)-yl)-3-(1-(((1r,3R,5S,7s)-3,5-dimethyl-7-(2-(pyrrolidin-1-yl)ethoxy)adamantan-1-yl)methyl)-5-methyl-1H-pyrazol-4-yl)picolinoyl)-2-azaspiro [3.3]heptan-6-yl)acetamido)-3,3-dimethylbutanoyl)-4-hydroxy-N—((S)-1-(4-(4-methylthiazol-5-yl)phenyl)ethyl)pyrrolidine-2-carboxamide]
